# Measured values taken from ChEMBL document CHEMBL6092137, “Synergistic immune augmentation enabled by covalently conjugating TLR4 and NOD2 agonists” (Eur J Med Chem, 2024).
# Activity calls are given as the source filed them. The calls are words filed in the database; no cut-off is given here.
# Experiments:
# THP-1 = test: Cytotoxicity against human THP-1 cells assessed as reduction in cell viability by MTT assay; type: toxicity, cell-based
# [1] = Induction of mouse BMDC cell maturation assessed as change in CD80 positive cells incubated for 18 hrs in the presence of muramyl dipeptide by staining based flow cytometric analysis relative to control; type: functional
# [2] = Induction of mouse RAW264.7 cell maturation assessed as change in CD80 positive cells incubated for 18 hrs by staining based flow cytometric analysis relative to control; type: functional
# [3] = Induction of mouse RAW264.7 cell maturation assessed as change in CD80 positive cells incubated for 18 hrs in the presence of muramyl dipeptide by staining based flow cytometric analysis relative to control; type: functional
# BMDC [4] = test: Immunostimulatory activity in C57BL/6 mouse BMDC cells assessed as increase in IL-6 level at 9.3 uM incubated for 20 hrs in presence of TAK242 inhibitor by ELISA; type: functional, cell-based
# [5] = Induction of mouse RAW264.7 cell maturation assessed as change in CD86 positive cells incubated for 18 hrs by staining based flow cytometric analysis relative to control; type: functional
# [6] = Induction of mouse BMDC cell maturation assessed as change in CD86 positive cells incubated for 18 hrs in the presence of muramyl dipeptide by staining based flow cytometric analysis relative to control; type: functional
# [7] = Induction of mouse BMDC cell maturation assessed as change in CD80 positive cells incubated for 18 hrs by staining based flow cytometric analysis relative to control; type: functional
# [8] = Induction of mouse RAW264.7 cell maturation assessed as change in CD86 positive cells incubated for 18 hrs in the presence of muramyl dipeptide by staining based flow cytometric analysis relative to control; type: functional
# [9] = Induction of mouse RAW264.7 cell maturation assessed as fold increase in CD80 positive cells incubated for 18 hrs in the presence of muramyl dipeptide by staining based flow cytometric analysis relative to RC529-NH2; type: functional
# [10] = Induction of mouse BMDC cell maturation assessed as change in CD86 positive cells incubated for 18 hrs by staining based flow cytometric analysis relative to control; type: functional
# [11] = Induction of mouse RAW264.7 cell maturation assessed as fold increase in CD80 positive cells incubated for 18 hrs in the presence of muramyl dipeptide by staining based flow cytometric analysis relative to muramyl dipeptide; type: functional
# BMDC [12] = test: Immunostimulatory activity in C57BL/6 mouse BMDC cells assessed as increase in IL-6 level at 9.3 uM incubated for 20 hrs in presence of GSK717 inhibitor by ELISA; type: functional, cell-based
# Mus musculus [13] = test: Induction of innate immunity in BALB/c mouse assessed as fold increase in IL-6 level in serum at 16.12 ug, ip measured after 2 hrs in presence of muramyl dipeptide by ELISA relative to RC529; type: functional; settings: dose 16.12 µg
# Mus musculus [14] = species on record: Mus musculus; test: Activation of adaptive immune response in ovalbumin immunized mouse model assessed as fold increase in IgG titers incubated for 1 hrs in presence of muramyl dipeptide and measured on day 42 relative to RC529; type: functional
# T-cell [15] = test: Immunostimulatory activity in mouse spleen T-lymphocytes assessed as fold increase in proportion of TNF-alpha and IFN-gamma double-positive secreting CD4+ cells and measured on day 42 in the presence of muramyl dipeptide by staining based flow cytometric analysis relative to muramyl dipeptide; type: functional; settings: time 42 day
# [16] = Induction of mouse RAW264.7 cell maturation assessed as fold increase in CD80 positive cells incubated for 18 hrs in the presence of muramyl dipeptide by staining based flow cytometric analysis relative to RC529; type: functional
# Mus musculus [17] = test: Induction of innate immunity in BALB/c mouse assessed as fold increase in IL-6 level in serum at 16.12 ug, ip in liposome formulation measured after 2 hrs by ELISA relative to RC529-NH2; type: functional; settings: dose 16.12 µg
# T-cell [18] = test: Immunostimulatory activity in mouse spleen T-lymphocytes assessed as fold increase in proportion of TNF-alpha and IFN-gamma double-positive secreting CD4+ cells and measured on day 42 in the presence of muramyl dipeptide by staining based flow cytometric analysis relative to RC529; type: functional; settings: time 42 day
# Mus musculus [19] = species on record: Mus musculus; test: Activation of adaptive immune response in ovalbumin immunized mouse model assessed as fold increase in IgG titers incubated for 1 hrs in presence of muramyl dipeptide and measured on day 42 relative to muramyl dipeptide; type: functional
# Mus musculus [20] = test: Induction of innate immunity in BALB/c mouse assessed as fold increase in IL-6 level in serum at 5.36 ug, ip measured after 2 hrs in presence of muramyl dipeptide by ELISA relative to muramyl dipeptide; type: functional; settings: dose 5.36 µg
Compound,Activity (THP-1),Activity [1] [%],Activity [2] [%],Activity [3] [%],Activity (BMDC [4]),Activity [5] [%],Activity [6] [%],Activity [7] [%],Activity [8] [%],Activity [10] [%],fold change (FC) [11],further results
CCOC(=O)C1=CCCC[C@H]1S(=O)(=O)Nc1ccc(F)cc1Cl [RESATORVID],Non-toxic,,,,,,,,,,,
CN(CCc1nc2ccccc2n1CC(=O)Nc1ccc2c(c1)CCC2)C(=O)c1ccccc1,Non-toxic,,,,,,,,,,,
CCCCCCCCCCCCCC(=O)O[C@H](CCCCCCCCCCC)CC(=O)NCCO[C@@H]1O[C@H](CN)[C@@H](OP(=O)(O)O)[C@H](OC(=O)C[C@@H](CCCCCCCCCCC)OC(=O)CCCCCCCCCCCCC)[C@H]1NC(=O)C[C@@H](CCCCCCCCCCC)OC(=O)CCCCCCCCCCCCC,,22.8,14.7,16.2,inactive,10.7,14.4,15.3,10.9,12.9,1.3,fold change (FC) [9]: 1.1
CC(=O)N[C@@H]1[C@@H](O[C@H](C)C(=O)N[C@@H](C)C(=O)N[C@H](CCC(=O)O)C(N)=O)[C@H](O)[C@@H](CO)O[C@H]1O [MURAMYLDIPEPTIDE],,,12.2,,,10.8,,13.6,,11.4,,Activity (BMDC [12]): inactive
CCCCCCCCCCCCCC(=O)O[C@H](CCCCCCCCCCC)CC(=O)NCCO[C@@H]1O[C@H](CO)[C@@H](OP(=O)(O)O)[C@H](OC(=O)C[C@@H](CCCCCCCCCCC)OC(=O)CCCCCCCCCCCCC)[C@H]1NC(=O)C[C@@H](CCCCCCCCCCC)OC(=O)CCCCCCCCCCCCC.CCN(CC)CC,,24.1,26.9,28.7,inactive,13.1,14.6,21.6,13.4,14,2.4,fold change (FC) (Mus musculus [13]): 1.04; fold change (FC) (Mus musculus [14]): 1.1; fold change (FC) (T-cell [15]): 1.2; fold change (FC) [16]: 1.1; fold change (FC) (Mus musculus [17]): 21; fold change (FC) (T-cell [18]): 1.2; fold change (FC) (Mus musculus [19]): 1.9; fold change (FC) (Mus musculus [20]): 17
